Test results from US8492376B2, “Heteroaryl-cyclohexyl-tetraazabenzo[e]azulenes” (Hoffmann-La Roche Inc., priority 2010, dated 2013).
Where a name gives a salt, the structure may show the parent alone.

target: T1, human V1a receptor (Homo sapiens, UniProt P37288); assay: human V1a receptor binding studies (3H-Vasopressin, SPA beads); conditions: membranes from HEK293 cells transiently transfected with human V1a receptor, Ki calculated from IC50 by the Cheng-Prussoff equation, read-out: pKi (hV1a) (converted)
T1 construct: expressed in transfected cells; host or cells: HEK293 cells, transiently transfected; cell membranes
Description: The human V1a receptor was cloned by RT-PCR from total human liver RNA. The coding sequence was subcloned in an expression vector after sequencing to confirm the identity of the amplified sequence. […] Cell membranes were prepared from HEK293 cells transiently transfected with the expression vector and grown in 20 liter fermenters with the following protocol.
50 g of cells are resuspended in 30 ml freshly prepared ice cold Lyses buffer (50 mM HEPES, 1 mM EDTA, 10 mM magnesium dichloride adjusted to pH=7.4+complete cocktail of protease inhibitor (Roche Diagnostics)). Homogenized with Polytron for 1 min and solicited on ice for 2×2 minutes at 80% intensity (Vibrate solicitor). The preparation is centrifuged 20 min at 500 g at 4° C., the pellet is discarded and the supernatant centrifuged 1 hour at 43′000 g at 4° C. (19′000 rpm). The pellet is resuspended in 12.5 ml Lyses buffer+12.5 ml sucrose 20% and homogenized using a Polytron for 1-2 min. The protein concentration is determined by the Bradford method and aliquots are stored at −80° C. until use. For binding studies 60 mg Yttrium silicate SPA beads (Habersham®) are mixed with an aliquot of membrane in binding buffer (50 mM Tris, 120 mM sodium chloride, 5 mM potassium chloride, 2 mM calcium dichloride, 10 mM magnesium dichloride) for 15 minutes with mixing. 50 μl of bead/membrane mixture is then added to each well of a 96 well plate, followed by 50 μl of 4 nM 3H-Vasopressin (American Radiolabeled Chemicals). For total binding measurement 100 μl of binding buffer are added to the respective wells, for non-specific binding 100 μl of 8.4 mM cold vasopressin and for compound testing 100 μl of a serial dilution of each compound in 2% dimethyl sulfoxide. The plate is incubated 1 h at room temperature, centrifuged 1 min at 1000 g and counted on a Packard Top-Count. Non-specific binding counts are subtracted from each well and data is normalized to the maximum specific binding set at 100%. To calculate an IC50 the curve is fitted using a non-linear regression model (XLfit) and the Ki is calculated using the Cheng-Prussoff equation.

T1 sequence (P37288 whole entry): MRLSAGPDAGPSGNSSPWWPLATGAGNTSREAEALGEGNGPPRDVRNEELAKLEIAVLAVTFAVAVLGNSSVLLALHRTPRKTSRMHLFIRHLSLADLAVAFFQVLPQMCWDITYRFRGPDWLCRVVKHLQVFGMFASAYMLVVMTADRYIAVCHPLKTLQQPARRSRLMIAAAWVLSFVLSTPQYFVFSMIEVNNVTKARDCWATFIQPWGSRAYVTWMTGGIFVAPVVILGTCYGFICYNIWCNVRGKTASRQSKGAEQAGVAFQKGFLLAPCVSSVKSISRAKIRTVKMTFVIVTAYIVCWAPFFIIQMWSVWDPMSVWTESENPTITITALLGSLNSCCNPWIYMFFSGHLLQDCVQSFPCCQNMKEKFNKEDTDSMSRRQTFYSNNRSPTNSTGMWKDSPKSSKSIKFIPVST

| Structure (SMILES) | Ki [nM] |
| --- | --- |
| Cc1nccnc1[C@H]1CC[C@H](c2nnc3n2-c2ccc(Cl)cc2CN(C(=O)OC(C)(C)C)C3)CC1 [Example 75, trans-8-Chloro-1-[4-(3-methyl-pyrazin-2-yl)-cyclohexyl]-4H,6H-2,3,5,10b-tetraaza-benzo[e]azulene-5-carboxylic acid tert-butyl ester] | 1.2 |
| Clc1ccc2c(c1)CNCc1nnc([C@H]3CC[C@@H](c4ncccn4)CC3)n1-2 [Example 61, cis-8-Chloro-1-(4-pyrimidin-2-yl-cyclohexyl)-5,6-dihydro-4H-2,3,5,10b-tetraaza-benzo[e]azulene] | 427 |
| Fc1ccc2c(c1)CNCc1nnc([C@H]3CC[C@H](c4ncccc4F)CC3)n1-2 [Example 43, trans-8-Fluoro-[4-(3-fluoro-pyridin-2-yl)-cyclohexyl]-5,6-dihydro-4H-2,3,5,10b-tetraaza-benzo[e]azulene] | 24.5 |
| CC(C)(C)OC(=O)N1Cc2cc(Cl)ccc2-n2c(nnc2[C@H]2CC[C@H](c3cccc(Cl)n3)CC2)C1 [Example 16, trans-8-Chloro-1-[4-(6-chloro-pyridin-2-yl)-cyclohexyl]-4H,6H-2,3,5,10b-tetraaza-benzoazulene-5-carboxylic acid tert-butyl ester] | 0.302 |
| CN1Cc2cc(Cl)ccc2-n2c(nnc2[C@H]2CC[C@H](c3cc(Cl)ccn3)CC2)C1 [Example 27, trans-8-Chloro-1-[4-(4-chloro-pyridin-2-yl)-cyclohexyl]-5-methyl-5,6-dihydro-4H-2,3,5,10b-tetraaza-benzo[e]azulene] | 0.537 |
| CN1Cc2cc(Cl)ccc2-n2c(nnc2[C@H]2CC[C@H](c3cccnn3)CC2)C1 [Example 81, trans-8-Chloro-5-methyl-1-(4-pyridazin-3-yl-cyclohexyl)-5,6-dihydro-4H-2,3,5,10b-tetraaza-benzo[e]azulene] | 4.68 |
| Clc1ccc2c(c1)CNCc1nnc([C@H]3CC[C@H](c4ccccn4)CC3)n1-2 [Example 2, trans-8-Chloro-1-(4-pyridin-2-yl-cyclohexyl)-5,6-dihydro-4H-2,3,5,10b-tetraaza-benzo[e]azulene dihydrochloride] | 10 |
| CN(C)CC(=O)N1Cc2cc(Cl)ccc2-n2c(nnc2[C@H]2CC[C@H](c3ncccc3F)CC2)C1 [Example 39, trans-1-{8-Chloro-1-[4-(3-fluoro-pyridin-2-yl)-cyclohexyl]-4H,6H-2,3,5,10b-tetraaza-benzo[e]azulen-5-yl}-2-dimethylamino-ethanone formate] | 2.51 |
| Clc1ccc2c(c1)CNCc1nnc([C@H]3CC[C@H](c4cc(Cl)ccn4)CC3)n1-2 [Example 26, trans-8-Chloro-1-[4-(4-chloro-pyridin-2-yl)-cyclohexyl]-5,6-dihydro-4H-2,3,5,10b-tetraaza-benzo[e]azulene] | 1 |
| CN1Cc2cc(Cl)ccc2-n2c(nnc2[C@H]2CC[C@H](c3ncccc3F)CC2)C1 [Example 30, trans-8-Chloro-1-[4-(3-fluoro-pyridin-2-yl)-cyclohexyl]-5-methyl-5,6-dihydro-4H-2,3,5,10b-tetraaza-benzo[e]azulene] | 0.603 |
| Fc1cccnc1[C@H]1CC[C@H](c2nnc3n2-c2ccc(Cl)cc2CNC3)CC1 [Example 29, trans-8-Chloro-1-[4-(3-fluoro-pyridin-2-yl)-cyclohexyl]-5,6-dihydro-4H-2,3,5,10b-tetraaza-benzo[e]azulene] | 1.51 |
| CN1Cc2cc(Cl)ccc2-n2c(nnc2[C@H]2CC[C@H](c3cccnc3)CC2)C1 [Example 50, trans-8-Chloro-5-methyl-1-(4-pyridin-3-yl-cyclohexyl)-5,6-dihydro-4H-2,3,5,10b-tetraaza-benzo[e]azulene] | 4.57 |
| Cc1cc(C)nc([C@H]2CC[C@H](c3nnc4n3-c3ccc(Cl)cc3CN(C)C4)CC2)n1 [Example 65, trans-8-Chloro-1-[4-(4,6-dimethyl-pyrimidin-2-yl)-cyclohexyl]-5-methyl-5,6-dihydro-4H-2,3,5,10b-tetraaza-benzo[e]azulene] | 2.29 |
| Cc1cnc(C)c([C@H]2CC[C@H](c3nnc4n3-c3ccc(Cl)cc3CNC4)CC2)n1 [Example 79, trans-8-Chloro-1-[4-(3,6-dimethyl-pyrazin-2-yl)-cyclohexyl]-5,6-dihydro-4H-2,3,5,10b-tetraaza-benzo[e]azulene hydrochloride] | 6.76 |
| CN1Cc2cc(Cl)ccc2-n2c(nnc2[C@H]2CC[C@H](c3ncccn3)CC2)C1 [Example 60, trans-8-Chloro-5-methyl-1-(4-pyrimidin-2-yl-cyclohexyl)-5,6-dihydro-4H-2,3,5,10b-tetraaza-benzo[e]azulene] | 2.19 |
| CC(C)(C)OC(=O)N1Cc2cc(Cl)ccc2-n2c(nnc2[C@H]2CC[C@@H](c3ncccc3F)CC2)C1 [Example 45, cis-8-Chloro-1-[4-(3-fluoro-pyridin-2-yl)-cyclohexyl]-4H,6H-2,3,5,10b-tetraaza-benzo[e]azulene-5-carboxylic acid tert-butyl ester] | 5.01 |
| Cc1nccc([C@H]2CC[C@H](c3nnc4n3-c3ccc(Cl)cc3CN(C)C4)CC2)n1 [Example 68, trans-8-Chloro-5-methyl-1-[4-(2-methyl-pyrimidin-4-yl)-cyclohexyl]-5,6-dihydro-4H-2,3,5,10b-tetraaza-benzo[e]azulene] | 126 |
| CC(C)(C)OC(=O)N1Cc2cc(Cl)ccc2-n2c(nnc2[C@H]2CC[C@H](c3cccnc3F)CC2)C1 [Example 54, trans-8-Chloro-1-[4-(2-fluoro-pyridin-3-yl)-cyclohexyl]-4H,6H-2,3,5,10b-tetraaza-benzo[e]azulene-5-carboxylic acid tert-butyl ester] | 1 |
| CC(C)N1Cc2cc(Cl)ccc2-n2c(nnc2[C@H]2CC[C@H](c3ncccc3F)CC2)C1 [Example 32, trans-8-Chloro-5-isopropyl-[4-(3-fluoro-pyridin-2-yl)-cyclohexyl]-5,6-dihydro-4H-2,3,5,10b-tetraaza-benzo[e]azulene] | 0.562 |
| Cc1cnc(C)c([C@H]2CC[C@H](c3nnc4n3-c3ccc(Cl)cc3CN(C(=O)OC(C)(C)C)C4)CC2)n1 [Example 78, trans-8-Chloro-1-[4-(3,6-dimethyl-pyrazin-2-yl)-cyclohexyl]-4H,6H-2,3,5,10b-tetraaza-benzo[e]azulene-5-carboxylic acid tert-butyl ester] | 0.794 |
| CN1Cc2cc(Cl)ccc2-n2c(nnc2[C@H]2CC[C@H](c3cccnc3F)CC2)C1 [Example 56, trans-8-Chloro-1-[4-(2-fluoro-pyridin-3-yl)-cyclohexyl]-5-methyl-5,6-dihydro-4H-2,3,5,10b-tetraaza-benzo[e]azulene] | 8.13 |
| CC(C)(C)OC(=O)N1Cc2cc(Cl)ccc2-n2c(nnc2[C@H]2CC[C@H](c3ncccc3F)CC2)C1 [Example 28, trans-8-Chloro-1-[4-(3-fluoro-pyridin-2-yl)-cyclohexyl]-4H,6H-2,3,5,10b-tetraaza-benzo[e]azulene-5-carboxylic acid tert-butyl ester] | 0.2 |
| CN1Cc2cc(F)ccc2-n2c(nnc2[C@H]2CC[C@H](c3ncccc3F)CC2)C1 [Example 44, trans-8-Fluoro-[4-(3-fluoro-pyridin-2-yl)-cyclohexyl]-5-methyl-5,6-dihydro-4H-2,3,5,10b-tetraaza-benzo[e]azulene] | 8.91 |
| CN1Cc2cc(Cl)ccc2-n2c(nnc2[C@H]2CC[C@H](c3ccccn3)CC2)C1 [Example 3, trans-8-Chloro-5-methyl-1-(4-pyridin-2-yl-cyclohexyl)-5,6-dihydro-4H-2,3,5,10b-tetraaza-benzo[e]azulene] | 0.794 |
| CC(C)(C)OC(=O)N1Cc2cc(Cl)ccc2-n2c(nnc2[C@H]2CC[C@H](c3cnccn3)CC2)C1 [Example 69, trans-8-Chloro-1-(4-pyrazin-2-yl-cyclohexyl)-4H,6H-2,3,5,10b-tetraaza-benzo[e]azulene-5-carboxylic acid tert-butyl ester] | 0.603 |
| Fc1cnc([C@H]2CC[C@H](c3nnc4n3-c3ccc(Cl)cc3CNC4)CC2)c(F)c1 [Example 86, trans-8-Chloro-1-[4-(3,5-difluoro-pyridin-2-yl)-cyclohexyl]-5,6-dihydro-4H-2,3,5,10b-tetraaza-benzo[e]azulene] | 9.33 |
| CC(C)(C)OC(=O)N1Cc2cc(Cl)ccc2-n2c(nnc2[C@H]2CC[C@H](c3ccc(F)cn3)CC2)C1 [Example 22, trans-8-Chloro-1-[4-(5-fluoro-pyridin-2-yl)-cyclohexyl]-4H,6H-2,3,5,10b-tetraaza-benzo[e]azulene-5-carboxylic acid tert-butyl ester] | 0.302 |
| COc1cccc([C@H]2CC[C@H](c3nnc4n3-c3ccc(Cl)cc3CN(C(=O)OC(C)(C)C)C4)CC2)n1 [Example 13, trans-8-Chloro-1-[4-(6-methoxy-pyridin-2-yl)-cyclohexyl]-4H,6H-2,3,5,10b-tetraaza-benzoazulene-5-carboxylic acid tert-butyl ester] | 0.501 |
